The source of these data is publication PMC6269915, “Design, Synthesis and Evaluation of 3-(2-Aminoheterocycle)-4-benzyloxyphenylbenzamide Derivatives as BACE-1 Inhibitors” (Molecules, 2013).

For orientation: melting point means the temperature of the solid-liquid transition. Broadly, the inhibition is how much of the control response was suppressed. Higher therefore signals a response far below the control. A word on the IC50: it is the concentration that gives 50% inhibition. Usually Papp A→B stands for the apparent permeability from the apical to the basolateral side of a cell layer. Higher therefore signals ready permeation. For orientation: Papp B→A means the apparent permeability from the basolateral to the apical side of a cell layer.

The structures appear in SMILES notation. Entries after “also recorded” stand apart in the source; their conditions may differ. Structures can show the parent of a compound that is named as a salt. Where two headings read alike, the source gives them in different places.

The target of data set [1] is T1, BACE-1 (Homo sapiens, UniProt P56817).
T1 construct: host or cells: insect cells
T1 sequence (P56817 46-501): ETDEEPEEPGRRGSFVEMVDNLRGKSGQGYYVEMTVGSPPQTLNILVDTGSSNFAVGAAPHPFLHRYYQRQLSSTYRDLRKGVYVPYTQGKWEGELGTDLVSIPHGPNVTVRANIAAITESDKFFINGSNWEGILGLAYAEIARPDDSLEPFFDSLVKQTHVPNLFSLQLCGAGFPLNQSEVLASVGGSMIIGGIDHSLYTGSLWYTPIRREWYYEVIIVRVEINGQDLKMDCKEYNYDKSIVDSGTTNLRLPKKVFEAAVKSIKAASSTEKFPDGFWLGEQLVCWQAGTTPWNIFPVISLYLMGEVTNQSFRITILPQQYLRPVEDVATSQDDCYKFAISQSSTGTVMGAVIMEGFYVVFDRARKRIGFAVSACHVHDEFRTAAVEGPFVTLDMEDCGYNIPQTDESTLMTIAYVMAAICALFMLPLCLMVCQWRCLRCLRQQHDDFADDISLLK
The data set can be described thus: BACE-1 inhibition, fluorescence resonance energy transfer (FRET) assay. The class given is biochemical. The conditions noted are these: BACE-1 FRET assay; for inhibition at 20 µg/mL: 20 μg/mL. As to the method:
The obtained target compounds were tested for their BACE-1 inhibitory activities using a fluorescence resonance energy transfer (FRET) assay, with OM99-2, a potent peptidomimetic inhibitor, as the positive control.
All synthesized compounds were tested for their BACE 1 inhibitor activities using a fluorescence resonance energy transfer (FRET) assay, which used purified insect-expressed BACE-1 and a specific substrate. An excitation wavelength of 355 nm and an emission wavelength of 460 nm were used to monitor the hydrolysis of substrate.

Data set [2] in a line: Bidirectional transport across MDCK monolayer cells. The class given is in vitro ADME, canine. The conditions noted are these: dog. How it is done:
(§1) Blood-brain barrier (BBB) permeation is critical for any AD therapeutic drug.
(§2) Madin-Darby canine kidney cell line (MDCK) was obtained from Peking Union Medical College (Beijing, China). The MDR1-transfected MDCK-MDR1 cells were established in Prof. Su Zeng’s laboratory as follows: MDCK cells were seeded onto six-well plates with a seeding density of 1 × 10^5 cells/well and cultured for 48 h. pcDNA3.1(+)/MDR1 plasmid vector was transfected into MDCK cells using Lipofectamine ^TM 2000 reagent according to the manufacturer’s instructions. Cells were subcultured in DMEM containing 600 µg/mL G418 for 96 h, and then replaced by DMEM containing 800 μg/mL G418 for a further 24 h. Cells were transferred to culture bottle and incubated in DMEM supplemented with 600 μg/mL G418 for 20 days. 19 stable transfected monoclonals grown on 96-well plates were obtained after dilution screening. Cells were cultured in DMEM with 10% fetal bovine serum, and grown in a humidified atmosphere of 5% CO2 at 37 °C. A solution of 0.25% trypsin-EDTA was used to detach the cells from flasks.
MDCK and MDCK-MDR1 cells were washed twice and equilibrated at 37 °C for 30 min with pre-warmed transport buffer. Hanks’ balanced salted solution (HBSS) containing HEPES (25 mM, pH 7.4). The transport buffer containing drug passed through a 0.2 μm membrane filter for degerming. For the absorption study (Apical to Basolateral), 0.5 mL incubation medium containing drug was added to the apical side as a donor chamber, 1.5 mL fresh incubation medium was added to the basolateral side as a receiver chamber. For the secretion study (Basolateral to Apical), 1.5 mL incubation medium containing drug was added to the basolateral side as a donor chamber, 0.5 mL fresh incubation medium was added to the apical side as a receiver chamber. Transport studies were conducted at 37 °C in a humidiﬁed incubator with shaking (50 rpm) for 1 h, and then the collected samples were analyzed by HPLC. […]

In a further data set the test system is MDCK-MDR1 cells. The data set can be described thus: Bidirectional transport across MDCK-MDR1 monolayer cells. Format: in vitro ADME, canine. How it is done: as §1, §2
(§3) MDCK and MDCK-MDR1 cells were washed twice and equilibrated at 37 °C for 30 min with pre-warmed transport buffer. Hanks’ balanced salted solution (HBSS) containing HEPES (25 mM, pH 7.4). The transport buffer containing drug passed through a 0.2 μm membrane filter for degerming. For the absorption study (Apical to Basolateral), 0.5 mL incubation medium containing drug was added to the apical side as a donor chamber, 1.5 mL fresh incubation medium was added to the basolateral side as a receiver chamber. For the secretion study (Basolateral to Apical), 1.5 mL incubation medium containing drug was added to the basolateral side as a donor chamber, 0.5 mL fresh incubation medium was added to the apical side as a receiver chamber. Transport studies were conducted at 37 °C in a humidiﬁed incubator with shaking (50 rpm) for 1 h, and then the collected samples were analyzed by HPLC. Apparent permeability coefficients (Papp(A-B), Papp(B-A)) and efflux ratio (Pratio = (Papp(B-A)/Papp(A-B)) were used to evaluate the permeability and absorption profiles of compounds. P ratio is an important parameter to denote if a compound is a substrate of P-gp or not.

The test system of another data set is P-gp (MDR1). Described as above. Format: in vitro ADME, canine. The conditions noted are these: dog. As to the method: as §1, §2, §3
The target of data set [3] is T1, BACE-1. The conditions noted are these: cited from earlier work.
On the set-up of data set [4]: method as in PMID 17156133. The conditions noted are these: in words; cited from earlier work.
Details of data set [5]: method as in PMID 19409780. As to conditions: mice, 20 mg/kg iv, t = 30 min; cited from earlier work.
Setting [6] is: pH 7.4, 55.6 μM 5e, 1 h, mean ± SD, n = 3.
[7] abbreviates: pH 7.4, MDCK-MDR1, 55.6 μM 5e, 1 h, mean ± SD, n = 3.

`NC1=NN=C(c2cc(NC(=O)c3ccc(C(F)(F)F)cc3)ccc2OCc2ccccc2)CS1` (as salt: hydrobromid) [5c, N-(3-(2-Amino-6H-1,3,4-thiadiazin-5-yl)-4-(benzyloxy)phenyl)-4-(trifluoromethyl)-benzamide hydro-bromide] registered a melting point of 222 to 225 °C.
Take `Nc1nc(-c2cc(NC(=O)c3ccccc3)ccc2OCc2ccccc2)cs1` [3a, N-(3-(2-Aminothiazol-4-yl)-4-(benzyloxy)phenyl)benzamide]: at 20 µg/mL the inhibition at BACE-1 [1] was 29.3 ± 1.3%.
The same measure, in the same setting: in the case of `Nc1nc(-c2cc(NC(=O)c3ccc(Cl)cc3)ccc2OCc2ccccc2)cs1` [3b, N-(3-(2-Aminothiazol-4-yl)-4-(benzyloxy)phenyl)-4-chlorobenzamide] it was 20.4 ± 4.4%; in that of `Nc1nc(-c2cc(NC(=O)c3ccc(C(F)(F)F)cc3)ccc2OCc2ccccc2)cs1` [3c, N-(3-(2-Aminothiazol-4-yl)-4-(benzyloxy)phenyl)-4-(trifluoromethyl)benzamide], 33 ± 1.9%; in that of `COc1ccc(C(=O)Nc2ccc(OCc3ccccc3)c(-c3csc(N)n3)c2)cc1` [3d, N-(3-(2-Aminothiazol-4-yl)-4-(benzyloxy)phenyl)-4-methoxybenzamide], 29.5 ± 3.5%.
In the case of `Nc1nc(-c2cc(NC(=O)c3cccc4ccccc34)ccc2OCc2ccccc2)cs1` [3e, N-(3-(2-Aminothiazol-4-yl)-4-(benzyloxy)phenyl)-1-naphthamide], the melting point is 198 to 200 °C. At BACE-1 [1], this molecule showed an IC50 of more than 20 µM and an inhibition at 20 µg/mL of 55.3 ± 5.7%.
Consider `Nc1nc(-c2cc(NC(=O)c3cccnc3)ccc2OCc2ccccc2)cs1` [3f, N-(3-(2-Aminothiazol-4-yl)-4-(benzyloxy)phenyl)nicotinamide], for which the melting point was in the range of 212 to 213 °C. At BACE-1 [1], the inhibition at 20 µg/mL turned out to be 36.8 ± 6.9%.
On the same counts, the results for `Nc1nc(-c2cc(NC(=O)Cc3ccccc3)ccc2OCc2ccccc2)cs1` [3g, N-(3-(2-Aminothiazol-4-yl)-4-(benzyloxy)phenyl)-2-phenylacetamide] are 190 to 193 °C and 8.9 ± 7%.
On the same counts, the results for `Nc1nc(-c2cc(NC(=O)CCc3ccccc3)ccc2OCc2ccccc2)cs1` [3h, N-(3-(2-Aminothiazol-4-yl)-4-(benzyloxy)phenyl)-3-phenylpropanamide] are 192 to 193 °C and 3.1 ± 2.5%.
On the same counts, the results for `Nc1nc(-c2cc(NC(=O)Cc3cccc4ccccc34)ccc2OCc2ccccc2)cs1` [3i, N-(3-(2-Aminothiazol-4-yl)-4-(benzyloxy)phenyl)-2-(naphthalen-1-yl)acetamide] are 246 to 247 °C and 11.3 ± 0.7%.
`Nc1nc(-c2cc(NC(=O)c3ccccc3)ccc2OCc2ccccc2)co1` [4a, N-(3-(2-Aminooxazol-4-yl)-4-(benzyloxy)phenyl)benzamide] displayed an inhibition at 20 µg/mL at BACE-1 [1] of 38.8 ± 0.3%.
Take `Nc1nc(-c2cc(NC(=O)c3ccc(Cl)cc3)ccc2OCc2ccccc2)co1` [4b, N-(3-(2-Aminooxazol-4-yl)-4-(benzyloxy)phenyl)-4-chlorobenzamide]: at BACE-1 [1], at 20 µg/mL the inhibition was 49.9 ± 0.2%.
On to `Nc1nc(-c2cc(NC(=O)c3ccc(C(F)(F)F)cc3)ccc2OCc2ccccc2)co1` [4c, N-(3-(2-Aminooxazol-4-yl)-4-(benzyloxy)phenyl)-4-(trifluoromethyl)benzamide], for which the melting point was in the range of 225 to 227 °C. On BACE-1 [1], this molecule came in with an inhibition at 20 µg/mL of 47.5 ± 9.9%.
At BACE-1 [1], `COc1ccc(C(=O)Nc2ccc(OCc3ccccc3)c(-c3coc(N)n3)c2)cc1` [4d, N-(3-(2-Aminooxazol-4-yl)-4-(benzyloxy)phenyl)-4-methoxybenzamide] registered an inhibition at 20 µg/mL of 34.4 ± 5.7%.
As to `Nc1nc(-c2cc(NC(=O)c3cccc4ccccc34)ccc2OCc2ccccc2)co1` [4e, N-(3-(2-Aminooxazol-4-yl)-4-(benzyloxy)phenyl)-1-naphthamide], the melting point was 195 to 197 °C. Further, on BACE-1 [1], the inhibition at 20 µg/mL came out at 42.6 ± 3.2%.
Regarding `Br.NC1=NN=C(c2cc(NC(=O)c3ccccc3)ccc2OCc2ccccc2)CS1` [5a, N-(3-(2-Amino-6H-1,3,4-thiadiazin-5-yl)-4-(benzyloxy)phenyl)benzamide hydrobromide], the melting point fell in the range of 246 to 247 °C. At BACE-1 [1], the IC50 was 16.7 µM and the inhibition at 20 µg/mL worked out at 64.2 ± 0.5%.
On the same counts, the results for `Br.NC1=NN=C(c2cc(NC(=O)c3ccc(Cl)cc3)ccc2OCc2ccccc2)CS1` [5b, N-(3-(2-Amino-6H-1,3,4-thiadiazin-5-yl)-4-(benzyloxy)phenyl)-4-chlorobenzamide hydrobromide] are 217 to 218 °C, more than 20 µM and 76 ± 2.5%.
`NC1=NN=C(c2cc(NC(=O)c3ccc(C(F)(F)F)cc3)ccc2OCc2ccccc2)CS1` [5c, N-(3-(2-Amino-6H-1,3,4-thiadiazin-5-yl)-4-(benzyloxy)phenyl)-4-(trifluoromethyl)-benzamide hydro-bromide] gave an inhibition at 20 µg/mL against BACE-1 [1] of 46.9 ± 7.5%.
On to `Br.COc1ccc(C(=O)Nc2ccc(OCc3ccccc3)c(C3=NN=C(N)SC3)c2)cc1` [5d, N-(3-(2-Amino-6H-1,3,4-thiadiazin-5-yl)-4-(benzyloxy)phenyl)-4-methoxybenzamide hydrobromide], for which the melting point was 181 to 182 °C. Also, on BACE-1 [1], the IC50 was more than 20 µM and at 20 µg/mL the inhibition was 84.9 ± 16.7%.
On to `Br.NC1=NN=C(c2cc(NC(=O)c3cccc4ccccc34)ccc2OCc2ccccc2)CS1` [5e, N-(3-(2-Amino-6H-1,3,4-thiadiazin-5-yl)-4-(benzyloxy)phenyl)-1-naphthamide hydrobromide], for which the melting point lay within 219 to 221 °C. At BACE-1 [1], this molecule showed an IC50 of 9.9 µM and an inhibition at 20 µg/mL of 60 ± 3.1%. In data set [2] (setting [6]), this molecule showed an apical-to-basolateral permeability (Papp A→B) at 1 h, 55.6 μM of 28.2 ± 6.45 ×10⁻⁶ cm/s and a basolateral-to-apical permeability (Papp B→A) at 1 h, 55.6 μM of 27.7 ± 2.87 ×10⁻⁶ cm/s. Also, the efflux ratio at 1 h, 55.6 μM in data set [2] (pH 7.4, Papp(B-A)/Papp(A-B)) worked out at 0.98. In addition, the “Blood-brain barrier permeability assessment” value in the data set with MDCK-MDR1 cells (MDCK and MDCK-MDR1 model, in words) was “high brain uptake potential; also recorded: good penetration ability through the blood-brain barrier; also recorded: favorable blood-brain barrier permeability”. The P-gp substrate assessment entry with MDCK-MDR1 cells (net efflux ratio less than FDA's recommendation of 2) is listed as “not a P-gp substrate”. In addition, in the data set with P-gp (MDR1) (MDCK-MDR1, pH 7.4, MDCK-MDR1, Papp(B-A)/Papp(A-B), read-out: Efflux ratio), the efflux ratio at 1 h, 55.6 μM worked out at 0.7. Besides, in the data set on P-gp (MDR1) (MDCK-MDR1, pH 7.4, MDCK-MDR1 versus MDCK, read-out: Net efflux ratio), the efflux ratio at 1 h, 55.6 μM turned out to be 0.71. In the data set on P-gp (MDR1) (setting [7]), the Papp A→B at 1 h, 55.6 μM turned out to be 31.8 ± 1.85 ×10⁻⁶ cm/s and the Papp B→A at 1 h, 55.6 μM turned out to be 22.2 ± 1.24 ×10⁻⁶ cm/s.
Consider `CCNc1cc(C(=O)N[C@@H](Cc2ccccc2)[C@H](O)CNCc2cccc(C(F)(F)F)c2)c(F)c(N2CCCCS2(=O)=O)c1` [GSK188909], for which, on BACE-1 [3], the IC50 is 0.005 µM. Also, in data set [4], the blood-brain barrier permeability entry is listed as “poor blood-brain barrier permeability”.
On to `NC1=NC(c2ccccc2)(c2ccccc2)C2=NCCCN12` [compound 2], for which the “[brain]” value in data set [5] was 15 µM.
